{
  "source": "patent US10376520B2",
  "about": "“Methods for the treatment of cardiovascular disorders” (Galapagos NV, priority 2015, dated 2019)",
  "system": "Subjects With Active Crohn's Disease",
  "assay": "LDL determination, Study 5 (Crohn's disease)",
  "format": "in vivo, human",
  "settings": "for [LDL] Median CFB - 10 weeks results: 200 mg q.d. (N = 130)",
  "from_the_text": "Double-Blind, Randomized, Placebo-Controlled, Multi-Centre Study to Investigate the Efficacy and Safety of Compound 1 in Subjects With Active Crohn's Disease With Evidence of Mucosal Ulceration.\nThis is a double-blind, randomized, placebo-controlled, multi-centre Phase 2 study to investigate the efficacy and safety of Compound 1 administered once daily for the treatment of active CD with evidence of mucosal ulceration. The pharmacokinetics (including a PK substudy) and pharmacodynamics of Compound 1 and metabolite in CD will also be characterised.\nA total of 180 eligible subjects will be randomized to receive Compound 1 or placebo in addition to their stable background treatment (eg, corticosteroids, aminosalicylates, or CD-related antibiotics). The study will consist of 2 parts, with total treatment duration of 20 weeks. Randomization in Part 1 will be stratified according the subject's previous anti-TNF exposure/response, CRP level at Screening, and oral corticosteroid use at visit Day −1.\nAfter the first 10 weeks of treatment in Part 1, patients will be re-randomized for Part 2 as shown in the diagram below and will be stratified according to the subject's clinical response, previous anti-TNF exposure/response, and oral corticosteroid use at visit Day −1.\nThe following assays were conducted at Eurofins Global Central Laboratory, Bergschot 71, 4817 PA Breda, The Netherlands, and at Quest Diagnostics, Clinical Trials, Quest House, 125-135 Staines Road, Hounslow, Middlesex, TW3 3JB, United Kingdom. The assays for Study 5 were performed at BARC Europe, 3B, Industrie Park, Zwijnaarde, B-9052 Ghent, Belgium.\nThe determination of [LDL]-cholesterol is made using an automated method taking advantage of the selective micellary solubilization of [LDL]-cholesterol by a nonionic detergent and the interaction of a sugar compound and lipoproteins (VLDL and chylomicrons).\nWhen a detergent is included in the enzymatic method for cholesterol determination (cholesterol esterase, cholesterol oxidase coupling reaction), the relative reactivities of cholesterol in the lipoprotein fractions increase in this order: [HDL]<chylomicrons <VLDL <[LDL]. In the presence of Mg^2+, a sugar compound markedly reduces the enzymatic reaction of the cholesterol measurement in VLDL and chylomicrons. The combination of a sugar compound with detergent enables the selective determination of [LDL]-cholesterol in serum. (Friedewald et al., 1972; Rifai et al., 1992)\nHomogeneous enzymatic colorimetric assay.\nIn the presence of peroxidase, the hydrogen peroxide generated reacts with 4-aminoantipyrine and Sodium N-(2-hydroxy-3-sulfopropyl)-3,5-dimethoxyaniline (HSDA) to form a purple-blue dye.\nThe color intensity of this dye is directly proportional to the cholesterol concentration and is measured photometrically.\nHuman serum and plasma samples [LDL] determination was done on a Roche/Hitachi Cobas c 701/702 system which automatically calculate the analyte concentration of each sample. Samples containing precipitates are centrifuged before performing the assay.",
  "key": {"[1]": {"settings": "200 mg q.d. continued to week 20, week 2"}, "[2]": {"settings": "200 mg q.d. continued to week 20, week 4"}, "[3]": {"settings": "200 mg q.d. continued to week 20, week 6"}, "[4]": {"settings": "200 mg q.d. continued to week 20, week 10"}, "[5]": {"settings": "200 mg q.d. continued to week 20, week 12"}, "[6]": {"settings": "200 mg q.d. continued to week 20, week 16"}, "[7]": {"settings": "200 mg q.d. continued to week 20, week 20"}, "[8]": {"settings": "200 mg q.d. week 0 to 10, then 100 mg q.d. (N = 30), week 2"}, "[9]": {"settings": "200 mg q.d. week 0 to 10, then 100 mg q.d. (N = 30), week 4"}, "[10]": {"settings": "200 mg q.d. week 0 to 10, then 100 mg q.d. (N = 30), week 6"}, "[11]": {"settings": "200 mg q.d. week 0 to 10, then 100 mg q.d. (N = 30), week 10"}, "[12]": {"settings": "200 mg q.d. week 0 to 10, then 100 mg q.d. (N = 30), week 12"}, "[13]": {"settings": "200 mg q.d. week 0 to 10, then 100 mg q.d. (N = 30), week 16"}, "[14]": {"settings": "200 mg q.d. week 0 to 10, then 100 mg q.d. (N = 30), week 20"}, "[15]": {"settings": "200 mg q.d. week 0 to 10, then placebo (N = 23), week 2"}, "[16]": {"settings": "200 mg q.d. week 0 to 10, then placebo (N = 23), week 4"}, "[17]": {"settings": "200 mg q.d. week 0 to 10, then placebo (N = 23), week 6"}, "[18]": {"settings": "200 mg q.d. week 0 to 10, then placebo (N = 23), week 10"}, "[19]": {"settings": "200 mg q.d. week 0 to 10, then placebo (N = 23), week 12"}, "[20]": {"settings": "200 mg q.d. week 0 to 10, then placebo (N = 23), week 16"}, "[21]": {"settings": "200 mg q.d. week 0 to 10, then placebo (N = 23), week 20"}, "[22]": {"settings": "200 mg q.d. week 0 to 10, to 100 mg q.d. week 10 to 20, week 2"}, "[23]": {"settings": "200 mg q.d. week 0 to 10, to 100 mg q.d. week 10 to 20, week 4"}, "[24]": {"settings": "200 mg q.d. week 0 to 10, to 100 mg q.d. week 10 to 20, week 6"}, "[25]": {"settings": "200 mg q.d. week 0 to 10, to 100 mg q.d. week 10 to 20, week 10"}, "[26]": {"settings": "200 mg q.d. week 0 to 10, to 100 mg q.d. week 10 to 20, week 12"}},
  "data": [
    {"smiles": "O=C(Nc1nc2cccc(-c3ccc(CN4CCS(=O)(=O)CC4)cc3)n2n1)C1CC1", "note": "[Compound 1, cyclopropanecarboxylic acid {5-[4-(1,1-dioxo-thiomorpholin-4-ylmethyl)-phenyl]-[1,2,4]triazolo[1,5-a]pyridin-2yl}-amide]", "values": [
      {"measurement": "[LDL] Median CFB - 10 weeks results", "setting": "week 2", "value": -0.050, "unit": "mmol/L"},
      {"measurement": "[LDL] Median CFB - 10 weeks results", "setting": "week 4", "value": -0.050, "unit": "mmol/L"},
      {"measurement": "[LDL] Median CFB - 10 weeks results", "setting": "week 6", "value": 0.025, "unit": "mmol/L"},
      {"measurement": "[LDL] Median CFB - 10 weeks results", "setting": "week 10", "value": 0.160, "unit": "mmol/L"},
      {"measurement": "[LDL] Mean CFB - 20 weeks results", "setting": "[1]", "value": 3.14, "unit": "%"},
      {"measurement": "[LDL] Median CFB - 20 weeks results", "setting": "[1]", "value": "−2.51", "unit": "%"},
      {"measurement": "[LDL] Mean CFB - 20 weeks results", "setting": "[2]", "value": 1.21, "unit": "%"},
      {"measurement": "[LDL] Median CFB - 20 weeks results", "setting": "[2]", "value": "−2.16", "unit": "%"},
      {"measurement": "[LDL] Mean CFB - 20 weeks results", "setting": "[3]", "value": 0.73, "unit": "%"},
      {"measurement": "[LDL] Median CFB - 20 weeks results", "setting": "[3]", "value": "−0.61", "unit": "%"},
      {"measurement": "[LDL] Mean CFB - 20 weeks results", "setting": "[4]", "value": 14.77, "unit": "%"},
      {"measurement": "[LDL] Median CFB - 20 weeks results", "setting": "[4]", "value": 8.26, "unit": "%"},
      {"measurement": "[LDL] Mean CFB - 20 weeks results", "setting": "[5]", "value": 9.98, "unit": "%"},
      {"measurement": "[LDL] Median CFB - 20 weeks results", "setting": "[5]", "value": 5.42, "unit": "%"},
      {"measurement": "[LDL] Mean CFB - 20 weeks results", "setting": "[6]", "value": 12.35, "unit": "%"},
      {"measurement": "[LDL] Median CFB - 20 weeks results", "setting": "[6]", "value": 7.42, "unit": "%"},
      {"measurement": "[LDL] Mean CFB - 20 weeks results", "setting": "[7]", "value": 11.56, "unit": "%"},
      {"measurement": "[LDL] Median CFB - 20 weeks results", "setting": "[7]", "value": 6.93, "unit": "%"},
      {"measurement": "[LDL] Mean CFB - 20 weeks results", "setting": "[8]", "value": -0.02, "unit": "mmol/L"},
      {"measurement": "[LDL] Median CFB - 10 weeks results 20 weeks results", "setting": "[8]", "value": -0.05, "unit": "mmol/L"},
      {"measurement": "[LDL] Mean CFB - 20 weeks results", "setting": "[9]", "value": 0.00, "unit": "mmol/L"},
      {"measurement": "[LDL] Median CFB - 10 weeks results 20 weeks results", "setting": "[9]", "value": -0.10, "unit": "mmol/L"},
      {"measurement": "[LDL] Mean CFB - 20 weeks results", "setting": "[10]", "value": 0.00, "unit": "mmol/L"},
      {"measurement": "[LDL] Median CFB - 10 weeks results 20 weeks results", "setting": "[10]", "value": 0.04, "unit": "mmol/L"},
      {"measurement": "[LDL] Mean CFB - 20 weeks results", "setting": "[11]", "value": 0.10, "unit": "mmol/L"},
      {"measurement": "[LDL] Median CFB - 10 weeks results 20 weeks results", "setting": "[11]", "value": 0.17, "unit": "mmol/L"},
      {"measurement": "[LDL] Mean CFB - 20 weeks results", "setting": "[12]", "value": 0.10, "unit": "mmol/L"},
      {"measurement": "[LDL] Median CFB - 10 weeks results 20 weeks results", "setting": "[12]", "value": 0.19, "unit": "mmol/L"},
      {"measurement": "[LDL] Mean CFB - 20 weeks results", "setting": "[13]", "value": 0.01, "unit": "mmol/L"},
      {"measurement": "[LDL] Median CFB - 10 weeks results 20 weeks results", "setting": "[13]", "value": -0.05, "unit": "mmol/L"},
      {"measurement": "[LDL] Mean CFB - 20 weeks results", "setting": "[14]", "value": 0.01, "unit": "mmol/L"},
      {"measurement": "[LDL] Median CFB - 10 weeks results 20 weeks results", "setting": "[14]", "value": 0.04, "unit": "mmol/L"},
      {"measurement": "[LDL] Mean CFB - 20 weeks results", "setting": "[15]", "value": 0.037, "unit": "mmol/L"},
      {"measurement": "[LDL] Median CFB - 10 weeks results 20 weeks results", "setting": "[15]", "value": 0.02, "unit": "mmol/L"},
      {"measurement": "[LDL] Mean CFB - 20 weeks results", "setting": "[16]", "value": -0.017, "unit": "mmol/L"},
      {"measurement": "[LDL] Median CFB - 10 weeks results 20 weeks results", "setting": "[16]", "value": 0.05, "unit": "mmol/L"},
      {"measurement": "[LDL] Mean CFB - 20 weeks results", "setting": "[17]", "value": 0.085, "unit": "mmol/L"},
      {"measurement": "[LDL] Median CFB - 10 weeks results 20 weeks results", "setting": "[17]", "value": 0.09, "unit": "mmol/L"},
      {"measurement": "[LDL] Mean CFB - 20 weeks results", "setting": "[18]", "value": 0.077, "unit": "mmol/L"},
      {"measurement": "[LDL] Median CFB - 10 weeks results 20 weeks results", "setting": "[18]", "value": 0.03, "unit": "mmol/L"},
      {"measurement": "[LDL] Mean CFB - 20 weeks results", "setting": "[19]", "value": 0.105, "unit": "mmol/L"},
      {"measurement": "[LDL] Median CFB - 10 weeks results 20 weeks results", "setting": "[19]", "value": 0.12, "unit": "mmol/L"},
      {"measurement": "[LDL] Mean CFB - 20 weeks results", "setting": "[20]", "value": 0.222, "unit": "mmol/L"},
      {"measurement": "[LDL] Median CFB - 10 weeks results 20 weeks results", "setting": "[20]", "value": 0.08, "unit": "mmol/L"},
      {"measurement": "[LDL] Mean CFB - 20 weeks results", "setting": "[21]", "value": 0.205, "unit": "mmol/L"},
      {"measurement": "[LDL] Median CFB - 10 weeks results 20 weeks results", "setting": "[21]", "value": 0.11, "unit": "mmol/L"},
      {"measurement": "[LDL] Mean CFB - 20 weeks results", "setting": "[22]", "value": 2.17, "unit": "%"},
      {"measurement": "[LDL] Median CFB - 20 weeks results", "setting": "[22]", "value": "−1.37", "unit": "%"},
      {"measurement": "[LDL] Mean CFB - 20 weeks results", "setting": "[23]", "value": 4.07, "unit": "%"},
      {"measurement": "[LDL] Median CFB - 20 weeks results", "setting": "[23]", "value": "−1.98", "unit": "%"},
      {"measurement": "[LDL] Mean CFB - 20 weeks results", "setting": "[24]", "value": 2.59, "unit": "%"},
      {"measurement": "[LDL] Median CFB - 20 weeks results", "setting": "[24]", "value": 1.25, "unit": "%"},
      {"measurement": "[LDL] Mean CFB - 20 weeks results", "setting": "[25]", "value": 5.40, "unit": "%"},
      {"measurement": "[LDL] Median CFB - 20 weeks results", "setting": "[25]", "value": 7.46, "unit": "%"},
      {"measurement": "[LDL] Mean CFB - 20 weeks results", "setting": "[26]", "value": 5.91, "unit": "%"},
      {"measurement": "[LDL] Median CFB - 20 weeks results", "setting": "[26]", "value": 6.39, "unit": "%"}
    ]}
  ]
}
